{"source": "patent US11446287B2", "about": "“Compounds and methods for EP300 or CBP modulation and indications therefor” (Opna Immuno-Oncology SA, priority 2019, dated 2022)"}
{"target": "T1, Recombinant human EP300 containing the bromodomain (EP300-BD (1040-1161)) (Homo sapiens, UniProt Q09472)", "T1 construct": "Recombinant human EP300 bromodomain (EP300-BD (1040-1161)); made in house; host or cells: E. coli BL21-CodonPlus (DE3), modified pET vector", "T1 sequence (Q09472 1040-1161)": "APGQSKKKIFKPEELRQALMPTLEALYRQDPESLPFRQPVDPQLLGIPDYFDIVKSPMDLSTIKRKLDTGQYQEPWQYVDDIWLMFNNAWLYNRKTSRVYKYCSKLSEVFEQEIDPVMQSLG", "experiment": "EP300 Alphascreen binding assay", "outline": "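Displacement of a biotinylated acetyl-K56 histone H3 peptide from the N-His bromodomain construct (1040-1161) measured by AlphaScreen proximity, beads at 7.5 μg/ml final, read 60 min after addition. Protein, peptide and compound first incubated 1 h at room temperature, pH 7.5 HEPES buffer; IC50 by four-parameter logistic fit.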", "units": {"IC50": "nM"}}
{"smiles": "Cc1noc(C)c1-c1cnc2c(c1)c(-c1ccc(C(=O)O)cc1OCC(F)F)cn2C(C1CC1)C1CC1", "note": "[P-0338, 4-(1-(dicyclopropylmethyl)-5-(3,5-dimethylisoxazol-4-yl)-1H-pyrrolo[2,3-b]pyridin-3-yl)-3-(2,2-difluoroethoxy)benzoic acid]", "IC50": "0.1 to 1000"}
{"smiles": "COc1cc(C(=O)O)ncc1-c1cn(C(C2CC2)C2CC2)c2ncc(-c3c(C)noc3C)cc12", "note": "[P-0339, 5-(1-(dicyclopropylmethyl)-5-(3,5-dimethylisoxazol-4-yl)-1H-pyrrolo[2,3-b]pyridin-3-yl)-4-methoxypicolinic acid]", "IC50": "0.1 to 1000"}
{"smiles": "Cc1noc(C)c1-c1cnc2c(c1)c(-c1c(Cl)cc(C(=O)O)cc1OCC(F)F)cn2C(C1CC1)C1CC1", "note": "[P-0340, 3-chloro-4-(1-(dicyclopropylmethyl)-5-(3,5-dimethylisoxazol-4-yl)-1H-pyrrolo[2,3-b]pyridin-3-yl)-5-(2,2-difluoroethoxy)benzoic acid]", "IC50": "0.1 to 1000"}
{"smiles": "Cc1noc(C)c1-c1cnc2c(c1)c(-c1ccc(C(=O)O)cc1OC1CCC1)cn2C1CCOCC1", "note": "[P-0341, 3-cyclobutoxy-4-(5-(3,5-dimethylisoxazol-4-yl)-1-(tetrahydro-2H-pyran-4-yl)-1H-pyrrolo[2,3-b]pyridin-3-yl)benzoic acid]", "IC50": "0.1 to 1000"}
{"smiles": "Cc1noc(C)c1-c1cnc2c(c1)c(-c1ccc(C(=O)O)cc1OC(C)C)c(C)n2C(C1CC1)C1CC1", "note": "[P-0342, 4-(1-(dicyclopropylmethyl)-5-(3,5-dimethylisoxazol-4-yl)-2-methyl-1H-pyrrolo[2,3-b]pyridin-3-yl)-3-isopropoxybenzoic acid]", "IC50": "0.1 to 1000"}
{"smiles": "Cc1noc(C)c1-c1cnc2c(c1)c(-c1ccc(C(=O)O)cc1OC(F)(F)F)c(C)n2C(C1CC1)C1CC1", "note": "[P-0343, 4-(1-(dicyclopropylmethyl)-5-(3,5-dimethylisoxazol-4-yl)-2-methyl-1H-pyrrolo[2,3-b]pyridin-3-yl)-3-(trifluoromethoxy)benzoic acid]", "IC50": "0.1 to 1000"}
{"smiles": "Cc1noc(C)c1-c1ccc2c(c1)c(-c1ccc(C(=O)O)cc1OC(F)(F)F)cn2C(C1CC1)C1CC1", "note": "[P-0344, 4-(1-(dicyclopropylmethyl)-5-(3,5-dimethylisoxazol-4-yl)-1H-indol-3-yl)-3-(trifluoromethoxy)benzoic acid]", "IC50": "0.1 to 1000"}
{"smiles": "Cc1noc(C)c1-c1cnc2c(c1)c(-c1ccc(C(=O)O)cc1OC(F)(F)F)c(C)n2-c1ncccc1C#N", "note": "[P-0345, 4-(1-(3-cyanopyridin-2-yl)-5-(3,5-dimethylisoxazol-4-yl)-2-methyl-1H-pyrrolo[2,3-b]pyridin-3-yl)-3-(trifluoromethoxy)benzoic acid]", "IC50": "0.1 to 1000"}
{"smiles": "Cc1noc(C)c1-c1cnc2c(c1)c(-c1c(Cl)cc(C(=O)O)cc1OC(F)(F)F)cn2[C@H]1CCOC1", "note": "[P-0346, (S)-3-chloro-4-(5-(3,5-dimethylisoxazol-4-yl)-1-(tetrahydrofuran-3-yl)-1H-pyrrolo[2,3-b]pyridin-3-yl)-5-(trifluoromethoxy)benzoic acid]", "IC50": "0.1 to 1000"}
{"smiles": "Cc1noc(C)c1-c1cnc2c(c1)c(-c1ccc(C(=O)O)cc1OC1CCC1)cn2-c1cnc(N2CCC2)nc1", "note": "[P-0347, 4-(1-(2-(azetidin-1-yl)pyrimidin-5-yl)-5-(3,5-dimethylisoxazol-4-yl)-1H-pyrrolo[2,3-b]pyridin-3-yl)-3-cyclobutoxybenzoic acid]", "IC50": "0.1 to 1000"}
{"smiles": "Cc1noc(C)c1-c1cnc2c(c1)c(-c1c(F)cc(C(=O)O)cc1OCC(F)F)cn2-c1cnc(N2CCC2)nc1", "note": "[P-0348, 4-(1-(2-(azetidin-1-yl)pyrimidin-5-yl)-5-(3,5-dimethylisoxazol-4-yl)-1H-pyrrolo[2,3-b]pyridin-3-yl)-3-(2,2-difluoroethoxy)-5-fluorobenzoic acid]", "IC50": "0.1 to 1000"}
{"smiles": "Cc1nn(C(F)F)cc1-n1cc(-c2ccc(C(=O)O)cc2OCC(F)F)c2cc(-c3c(C)noc3C)cnc21", "note": "[P-0349, 3-(2,2-difluoroethoxy)-4-(1-(1-(difluoromethyl)-3-methyl-1H-pyrazol-4-yl)-5-(3,5-dimethylisoxazol-4-yl)-1H-pyrrolo[2,3-b]pyridin-3-yl)benzoic acid]", "IC50": "0.1 to 1000"}
{"smiles": "Cc1noc(C)c1-c1cnc2c(c1)c(-c1ccc(C(=O)O)cc1OC1CCC1)cn2[C@H]1CCOC1", "note": "[P-0350, (S)-3-cyclobutoxy-4-(5-(3,5-dimethylisoxazol-4-yl)-1-(tetrahydrofuran-3-yl)-1H-pyrrolo[2,3-b]pyridin-3-yl)benzoic acid]", "IC50": "0.1 to 1000"}
{"smiles": "Cc1nn(C(F)F)cc1-n1cc(-c2ccc(C(=O)O)cc2OC2CCC2)c2cc(-c3c(C)noc3C)cnc21", "note": "[P-0351, 3-cyclobutoxy-4-(1-(1-(difluoromethyl)-3-methyl-1H-pyrazol-4-yl)-5-(3,5-dimethylisoxazol-4-yl)-1H-pyrrolo[2,3-b]pyridin-3-yl)benzoic acid]", "IC50": "0.1 to 1000"}
{"smiles": "Cc1noc(C)c1-c1cnc2c(c1)c(-c1c(Cl)cc(C(=O)O)cc1OCC(F)F)cn2-c1cnn(C(F)F)c1C", "note": "[P-0352, 3-chloro-5-(2,2-difluoroethoxy)-4-(1-(1-(difluoromethyl)-5-methyl-1H-pyrazol-4-yl)-5-(3,5-dimethylisoxazol-4-yl)-1H-pyrrolo[2,3-b]pyridin-3-yl)benzoic acid]", "IC50": "0.1 to 1000"}
{"smiles": "Cc1noc(C)c1-c1cnc2c(c1)c(-c1ccc(C(=O)O)cc1OC1CCC1)cn2-c1cnn(C(F)F)c1C", "note": "[P-0353, 3-cyclobutoxy-4-(1-(1-(difluoromethyl)-5-methyl-1H-pyrazol-4-yl)-5-(3,5-dimethylisoxazol-4-yl)-1H-pyrrolo[2,3-b]pyridin-3-yl)benzoic acid]", "IC50": "0.1 to 1000"}
{"smiles": "Cc1noc(C)c1-c1cnc2c(c1)c(-c1ccc(C(=O)O)cc1OC(C)C)cn2-c1cnn(C(F)F)c1C", "note": "[P-0354, 4-(1-(1-(difluoromethyl)-5-methyl-1H-pyrazol-4-yl)-5-(3,5-dimethylisoxazol-4-yl)-1H-pyrrolo[2,3-b]pyridin-3-yl)-3-isopropoxybenzoic acid]", "IC50": "0.1 to 1000"}
{"smiles": "Cc1noc(C)c1-c1cnc2c(c1)c(-c1c(Cl)cc(C(=O)O)cc1OC(F)(F)F)cn2C1CCOCC1", "note": "[P-0355, 3-chloro-4-(5-(3,5-dimethylisoxazol-4-yl)-1-(tetrahydro-2H-pyran-4-yl)-1H-pyrrolo[2,3-b]pyridin-3-yl)-5-(trifluoromethoxy)benzoic acid]", "IC50": "0.1 to 1000"}
{"smiles": "Cc1noc(C)c1-c1cnc2c(c1)c(-c1c(Cl)cc(C(=O)O)cc1OC1CCC1)cn2C(C1CC1)C1CC1", "note": "[P-0356, 3-chloro-5-cyclobutoxy-4-(1-(dicyclopropylmethyl)-5-(3,5-dimethylisoxazol-4-yl)-1H-pyrrolo[2,3-b]pyridin-3-yl)benzoic acid]", "IC50": "0.1 to 1000"}
{"smiles": "Cc1noc(C)c1-c1cnc2c(c1)c(-c1ccc(C(=O)O)cc1OC(C)C)cn2C1CCOCC1", "note": "[P-0357, 4-(5-(3,5-dimethylisoxazol-4-yl)-1-(tetrahydro-2H-pyran-4-yl)-1H-pyrrolo[2,3-b]pyridin-3-yl)-3-isopropoxybenzoic acid]", "IC50": "0.1 to 1000"}
{"smiles": "Cc1noc(C)c1-c1cnc2c(c1)c(-c1c(Cl)cc(C(=O)O)cc1OC1CCC1)cn2C1CCOCC1", "note": "[P-0358, 3-chloro-5-cyclobutoxy-4-(5-(3,5-dimethylisoxazol-4-yl)-1-(tetrahydro-2H-pyran-4-yl)-1H-pyrrolo[2,3-b]pyridin-3-yl)benzoic acid]", "IC50": "0.1 to 1000"}
{"smiles": "Cc1noc(C)c1-c1cnc2c(c1)c(-c1c(Cl)cc(C(=O)O)cc1OCC(F)F)cn2C1CCOCC1", "note": "[P-0359, 3-chloro-5-(2,2-difluoroethoxy)-4-(5-(3,5-dimethylisoxazol-4-yl)-1-(tetrahydro-2H-pyran-4-yl)-1H-pyrrolo[2,3-b]pyridin-3-yl)benzoic acid]", "IC50": "0.1 to 1000"}
{"smiles": "CCOc1cc(C(=O)O)c(F)cc1-c1cn([C@H]2CCOC2)c2ncc(-c3c(C)noc3C)cc12", "note": "[P-0360, (S)-4-(5-(3,5-dimethylisoxazol-4-yl)-1-(tetrahydrofuran-3-yl)-1H-pyrrolo[2,3-b]pyridin-3-yl)-5-ethoxy-2-fluorobenzoic acid]", "IC50": "0.1 to 1000"}
{"smiles": "Cc1noc(C)c1-c1cnc2c(c1)c(-c1c(Cl)cc(C(=O)O)cc1OC1CCC1)cn2[C@H]1CCOC1", "note": "[P-0361, (S)-3-chloro-5-cyclobutoxy-4-(5-(3,5-dimethylisoxazol-4-yl)-1-(tetrahydrofuran-3-yl)-1H-pyrrolo[2,3-b]pyridin-3-yl)benzoic acid]", "IC50": "0.1 to 1000"}
{"smiles": "COc1cc(C(=O)O)ncc1-c1cn(C2CCOCC2)c2ncc(-c3c(C)noc3C)cc12", "note": "[P-0362, 5-(5-(3,5-dimethylisoxazol-4-yl)-1-(tetrahydro-2H-pyran-4-yl)-1H-pyrrolo[2,3-b]pyridin-3-yl)-4-methoxypicolinic acid]", "IC50": "0.1 to 1000"}
{"smiles": "Cc1noc(C)c1-c1cnc2c(c1)c(-c1c(Cl)cc(C(=O)O)cc1OC1CC1)cn2C(C1CC1)C1CC1", "note": "[P-0363, 3-chloro-5-cyclopropoxy-4-(1-(dicyclopropylmethyl)-5-(3,5-dimethylisoxazol-4-yl)-1H-pyrrolo[2,3-b]pyridin-3-yl)benzoic acid]", "IC50": "0.1 to 1000"}
{"smiles": "Cc1noc(C)c1-c1cnc2c(c1)c(-c1ccc(C(=O)O)cc1OC(F)(F)F)cn2CC1(C#N)CCC1", "note": "[P-0364, 4-(1-((1-cyanocyclobutyl)methyl)-5-(3,5-dimethylisoxazol-4-yl)-1H-pyrrolo[2,3-b]pyridin-3-yl)-3-(trifluoromethoxy)benzoic acid]", "IC50": "0.1 to 1000"}
{"smiles": "Cc1nn(CC(C)(C)O)cc1-n1cc(-c2ccc(C(=O)O)cc2OC(F)(F)F)c2cc(-c3c(C)noc3C)cnc21", "note": "[P-0365, 4-(5-(3,5-dimethylisoxazol-4-yl)-1-(1-(2-hydroxy-2-methylpropyl)-3-methyl-1H-pyrazol-4-yl)-1H-pyrrolo[2,3-b]pyridin-3-yl)-3-(trifluoromethoxy)benzoic acid]", "IC50": "0.1 to 1000"}
